Tests used:
[1] = target: DNMT3A2/3L complex (Homo sapiens, UniProt Q9Y6K1); experiment: Inhibition of His6-tagged human recombinant DNMT3A/DNMT3L expressed in insect Sf9 cells assessed as reduction in DNA methyltransferase activity using 5'-biotinylated 45-bp unmethylated or hemimethylated oligonucleotide substrates and [3H]-AdoMet by liquid scintillation counting method
[2] = target: DNA (cytosine-5)-methyltransferase 3B (Homo sapiens, UniProt Q9UBC3); experiment: Inhibition of His6-tagged human recombinant DNMT3b expressed in insect Sf9 cells assessed as reduction in DNA methyltransferase activity using 5'-biotinylated 45-bp unmethylated or hemimethylated oligonucleotide substrates and [3H]-AdoMet by liquid scintillation counting method
[3] = target: DNA (cytosine-5)-methyltransferase 1 (Homo sapiens, UniProt P26358); experiment: Inhibition of His6-tagged human recombinant DNMT1 expressed in insect Sf9 cells assessed as reduction in DNA methyltransferase activity using 5'-biotinylated 45-bp unmethylated or hemimethylated oligonucleotide substrates and [3H]-AdoMet by liquid scintillation counting method
[4] = target: DNA (cytosine-5)-methyltransferase 3A (Homo sapiens, UniProt Q9Y6K1); experiment: Inhibition of His6-tagged human recombinant DNMT3a expressed in insect Sf9 cells assessed as reduction in DNA methyltransferase activity using 5'-biotinylated 45-bp unmethylated or hemimethylated oligonucleotide substrates and [3H]-AdoMet by liquid scintillation counting method
[5] = Half life in sc dosed patient with myelodysplastic syndrome; details: human, in vivo
[6] = Half life in patient with myelodysplastic syndrome dosed via infusion; assay type: ADME, organism-based; details: human, in vivo, iv

Sequence of DNA (cytosine-5)-methyltransferase 1 (P26358 whole entry): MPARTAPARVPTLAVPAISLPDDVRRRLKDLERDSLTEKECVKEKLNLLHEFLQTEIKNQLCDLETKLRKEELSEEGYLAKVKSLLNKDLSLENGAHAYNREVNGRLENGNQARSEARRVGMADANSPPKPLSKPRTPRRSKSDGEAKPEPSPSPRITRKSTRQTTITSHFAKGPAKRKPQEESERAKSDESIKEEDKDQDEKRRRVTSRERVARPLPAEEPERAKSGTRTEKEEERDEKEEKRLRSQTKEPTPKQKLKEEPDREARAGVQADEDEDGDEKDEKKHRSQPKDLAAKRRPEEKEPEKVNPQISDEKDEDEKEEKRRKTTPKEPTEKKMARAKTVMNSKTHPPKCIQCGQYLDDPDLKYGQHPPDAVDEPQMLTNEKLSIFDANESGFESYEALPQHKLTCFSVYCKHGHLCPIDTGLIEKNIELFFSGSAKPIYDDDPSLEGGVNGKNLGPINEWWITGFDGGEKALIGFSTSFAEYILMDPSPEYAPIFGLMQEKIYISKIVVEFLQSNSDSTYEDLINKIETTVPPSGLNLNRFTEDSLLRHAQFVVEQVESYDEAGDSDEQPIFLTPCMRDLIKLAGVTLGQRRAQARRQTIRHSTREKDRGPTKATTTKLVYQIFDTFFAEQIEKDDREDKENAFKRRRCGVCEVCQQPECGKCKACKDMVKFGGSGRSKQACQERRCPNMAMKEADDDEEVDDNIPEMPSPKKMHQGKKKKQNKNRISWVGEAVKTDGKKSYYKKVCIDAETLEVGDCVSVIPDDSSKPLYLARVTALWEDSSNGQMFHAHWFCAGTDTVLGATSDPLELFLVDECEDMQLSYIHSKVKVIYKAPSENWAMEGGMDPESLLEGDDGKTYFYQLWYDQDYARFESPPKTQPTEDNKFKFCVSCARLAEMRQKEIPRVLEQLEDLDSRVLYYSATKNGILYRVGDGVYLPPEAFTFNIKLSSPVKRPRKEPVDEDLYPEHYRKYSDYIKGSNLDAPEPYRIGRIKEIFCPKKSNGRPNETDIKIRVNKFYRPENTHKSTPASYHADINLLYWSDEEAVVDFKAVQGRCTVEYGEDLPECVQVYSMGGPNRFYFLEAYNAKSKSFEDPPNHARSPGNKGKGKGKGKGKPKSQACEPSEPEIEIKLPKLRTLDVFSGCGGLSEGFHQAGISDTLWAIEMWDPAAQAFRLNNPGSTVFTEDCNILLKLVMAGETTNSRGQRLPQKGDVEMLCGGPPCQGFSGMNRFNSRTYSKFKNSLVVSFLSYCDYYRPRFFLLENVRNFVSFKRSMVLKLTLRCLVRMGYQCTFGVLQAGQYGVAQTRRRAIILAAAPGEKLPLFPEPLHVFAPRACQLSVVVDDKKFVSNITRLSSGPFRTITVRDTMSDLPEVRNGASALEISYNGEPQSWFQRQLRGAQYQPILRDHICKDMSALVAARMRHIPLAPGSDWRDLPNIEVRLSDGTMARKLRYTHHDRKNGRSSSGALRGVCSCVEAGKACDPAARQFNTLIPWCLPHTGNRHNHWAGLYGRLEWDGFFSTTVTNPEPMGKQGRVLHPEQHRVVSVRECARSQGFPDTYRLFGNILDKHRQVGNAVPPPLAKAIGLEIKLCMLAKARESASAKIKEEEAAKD
Sequence of DNMT3A2/3L complex (Q9Y6K1 whole entry, looked up, one chain of several): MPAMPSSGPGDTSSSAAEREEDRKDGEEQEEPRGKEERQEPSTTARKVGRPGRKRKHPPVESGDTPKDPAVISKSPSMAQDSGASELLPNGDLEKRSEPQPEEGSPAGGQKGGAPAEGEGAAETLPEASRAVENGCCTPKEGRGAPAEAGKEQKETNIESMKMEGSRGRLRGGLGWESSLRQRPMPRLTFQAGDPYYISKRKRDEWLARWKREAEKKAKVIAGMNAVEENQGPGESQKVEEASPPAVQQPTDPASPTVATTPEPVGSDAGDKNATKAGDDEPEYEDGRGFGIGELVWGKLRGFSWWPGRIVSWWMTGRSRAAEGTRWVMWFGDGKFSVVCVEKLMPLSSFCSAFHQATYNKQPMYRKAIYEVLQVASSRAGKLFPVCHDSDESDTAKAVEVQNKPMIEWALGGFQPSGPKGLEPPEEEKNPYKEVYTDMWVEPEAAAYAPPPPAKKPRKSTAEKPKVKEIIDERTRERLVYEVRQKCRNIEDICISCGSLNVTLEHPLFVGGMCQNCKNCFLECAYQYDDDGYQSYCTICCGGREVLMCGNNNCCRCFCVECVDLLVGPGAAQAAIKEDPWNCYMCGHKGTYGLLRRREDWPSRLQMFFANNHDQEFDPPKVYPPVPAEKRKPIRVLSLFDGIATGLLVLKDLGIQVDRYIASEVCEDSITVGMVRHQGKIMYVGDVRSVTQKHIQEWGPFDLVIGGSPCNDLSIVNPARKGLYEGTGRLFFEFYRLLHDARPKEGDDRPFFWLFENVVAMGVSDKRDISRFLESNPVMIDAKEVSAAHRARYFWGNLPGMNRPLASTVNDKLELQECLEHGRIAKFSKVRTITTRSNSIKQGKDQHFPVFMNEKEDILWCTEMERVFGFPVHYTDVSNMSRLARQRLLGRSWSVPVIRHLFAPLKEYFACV
Sequence of DNA (cytosine-5)-methyltransferase 3A (Q9Y6K1 whole entry, looked up): as the sequence (Q9Y6K1 whole entry, looked up, one chain of several) above

SMILES	IC50 [1] [µM]	IC50 [3] [µM]	other results
Cc1cc(Nc2ccc(NC(=O)c3ccc(Nc4ccnc5ccccc45)cc3)cc2)nc(N)n1			IC50 [2]: 7.5 µM
O=[N+]([O-])c1cc(S(=O)(=O)Nc2ccc(O)c3ccccc23)ccc1Cl		1.2	IC50 [4]: 38 µM
Nc1ncn([C@@H]2O[C@H](CO)[C@@H](O)[C@H]2O)c(=O)n1 [AZACITIDINE]			half-life [5]: 41 min
Nc1ncn([C@H]2C[C@H](O)[C@@H](CO)O2)c(=O)n1 [DECITABINE]			half-life [6]: 10 min
O=C1C(Cl)=C(Cl)C(=O)c2ccccc21 [Dichlon]	0.5	1.6	
O=C(O[C@@H]1Cc2c(O)cc(O)cc2O[C@@H]1c1cc(O)c(O)c(O)c1)c1cc(O)c(O)c(O)c1 [EPIGALOCATECHIN GALLATE]		0.5	
O=c1c(-c2ccc(O)cc2)coc2cc(O)cc(O)c12 [GENISTEIN]	> 100	30	
C[C@@H]1O[C@@H](CC(=O)O)CC2=C1C(=O)c1c(O)cccc1C2=O [NANAFROCIN]			IC50 [2]: 0.5 µM
CCN(CC)CCNC(=O)c1ccc(N)cc1 [PROCAINAMIDE]	> 300	> 500	

Second part, led by results:

IC50 [1] [µM]	IC50 [3] [µM]	SMILES	other results
315		O=C(O)[C@H](Cc1c[nH]c2ccccc12)N1C(=O)c2ccccc2C1=O	
21	4	CCN(CC)CCNC(=O)c1ccc(NCCCCCCCCCCCCN2C(=O)c3ccccc3C2=O)cc1	
	20	O=C(O)[C@H](Cc1c[nH]c2ccccc12)N1C(=O)C=CC1=O	
	150	O=[N+]([O-])c1ccc(C2=NC[C@H](CN3CCCC3)O2)cc1	
